Columns and labels:
Assay in all cases: Test E greenhouse herbicide test, pre- and postemergence
Format in all cases: in vivo
[1] = test system: Italian ryegrass (Lolium multiflorum)
Text: (§1) Seeds of plant species selected from corn (Zea mays), soybean (Glycine max), velvetleaf (Abutilon theophrasti), lambsquarters (Chenopodium album), wild poinsettia (Euphorbia heterophylla), pigweed, palmer (palmer pigweed, Amaranthus palmeri), waterhemp (common waterhemp, Amaranthus rudis), surinam grass (Brachiaria decumbens), crabgrass, large (large crabgrass, Digitaria sanguinalis), crabgrass, Brazilian (Brazilian crabgrass, Digitaria horizontalis), panicum, fall (fall panicum, Panicum dichotomiflorum), foxtail, giant (giant foxtail, Setaria faberii), foxtail, green (green foxtail, Setaria viridis), goosegrass (Eleusine indica), johnsongrass (Sorghum halepense), ragweed (common ragweed, Ambrosia elatior), barnyardgrass (Echinochloa crus-galli), sandbur (southem sandbur, Cenchrus echinatus), arrowleaf sida (Sida rhombifolia), Italian ryegrass (Lolium multiflorum), dayflower (Virginia (VA) dayflower, Commelina virginica), field bindweed (Convolvulus arvensis), momingglory (Ipomoea coccinea), nightshade (eastern black nightshade, Solanum ptycanthum), kochia (Kochia scoparia), nutsedge, yellow (yellow nutsedge, Cyperus esculentus), horseweed (Conyza canadensis), and beggarticks (hairy beggarticks, Bidens pilosa), were planted into a silt loam soil and treated preemergence with test chemicals formulated in a non-phytotoxic solvent mixture which included a surfactant.
(§2) At the same time, plants from these crop and weed species and also waterhemp_RES1, (ALS & Triazine resistant common waterhemp, Amaranthus rudis), and waterhemp_RES2, (ALS & HPPD resistant common waterhemp, Amaranthus rudis) were planted in pots containing Redi-Earth® planting medium (Scotts Company, 14111 Scottslawn Road, Marysville, Ohio 43041) comprising spaghnum peat moss, vermiculite, wetting agent and starter nutrients were treated with postemergence applications of test chemicals formulated in the same manner. Plants ranged in height from 2 to 18 cm for postemergence treatments (1- to 4-leaf stage). Treated plants and controls were maintained in a greenhouse for 14 to 21 d, after which time all species were compared to controls and visually evaluated. Plant response ratings, summarized in Table E, are based on a scale of 0 to 100 where 0 is no effect and 100 is complete control. A dash (-) response means no test result.

[2] = test system: arrowleaf sida (Sida rhombifolia)
Text: as §1, §2

[3] = test system: barnyardgrass (Echinochloa crus-galli)
Text: as §1, §2

corn (Zea mays) = test system: corn (Zea mays)
Text: as §1, §2

[4] = test system: crabgrass, Brazilian (Brazilian crabgrass, Digitaria horizontalis)
Text: as §1, §2

[5] = test system: crabgrass, large (large crabgrass, Digitaria sanguinalis); conditions: Preemergence
Text: as §1, §2

[6] = test system: foxtail, giant (giant foxtail, Setaria faberii); conditions: Preemergence
Text: as §1, §2

[7] = test system: foxtail, green (green foxtail, Setaria viridis); conditions: Preemergence
Text: as §1, §2

[8] = test system: goosegrass (Eleusine indica); conditions: Preemergence
Text: as §1, §2

[9] = test system: horseweed (Conyza canadensis); conditions: Preemergence
Text: as §1, §2

kochia (Kochia scoparia) = test system: kochia (Kochia scoparia)
Text: as §1, §2

[10] = test system: lambsquarters (Chenopodium album); conditions: Preemergence
Text: as §1, §2

[11] = test system: nightshade (eastern black nightshade, Solanum ptycanthum); conditions: Preemergence
Text: as §1, §2

[12] = test system: panicum, fall (fall panicum, Panicum dichotomiflorum)
Text: as §1, §2

[13] = test system: sandbur (southem sandbur, Cenchrus echinatus)
Text: as §1, §2

[14] = test system: surinam grass (Brachiaria decumbens); conditions: Preemergence
Text: as §1, §2

[15] = test system: velvetleaf (Abutilon theophrasti); conditions: Preemergence
Text: as §1, §2

[16] = 62 g ai/ha, Postemergence, scale 0 to 100 (0 no effect, 100 complete control)
[17] = 62 g ai/ha, Preemergence, scale 0 to 100 (0 no effect, 100 complete control)
[18] = 125 g ai/ha, Postemergence, scale 0 to 100 (0 no effect, 100 complete control)
[19] = 125 g ai/ha, Preemergence, scale 0 to 100 (0 no effect, 100 complete control)
[20] = 250 g ai/ha, Postemergence, scale 0 to 100 (0 no effect, 100 complete control)
[21] = Postemergence, 31 g ai/ha, visual, scale 0 no effect to 100 complete control
[22] = Preemergence, 31 g ai/ha, scale 0 to 100, 0 no effect, 100 complete control
[23] = Preemergence, 250 g ai/ha, visual, scale 0 no effect to 100 complete control
[24] = Preemergence, 125 g ai/ha, visual, scale 0 no effect to 100 complete control
[25] = 62 g ai/ha, scale 0 to 100 (0 no effect, 100 complete control)
[26] = 125 g ai/ha, visual, scale 0 no effect to 100 complete control
[27] = 250 g ai/ha, visual, scale 0 no effect to 100 complete control
[28] = 31 g ai/ha, scale 0 to 100, 0 no effect, 100 complete control
[29] = 125 g ai/ha, scale 0 to 100 (0 no effect, 100 complete control)

CC(=O)Oc1c(C)nn(C)c(=O)c1-c1c(C)sc2ccc(C)cc12 [Compound 25]
Plant response rating, Ryegrass, Italian [1, 16]: 80
Plant response rating, Ryegrass, Italian [1, 17]: 95
Plant response rating, Ryegrass, Italian [1, 18]: 85
Plant response rating, Ryegrass, Italian [1, 19]: 98
Plant response rating, Ryegrass, Italian [1, 20]: 90
Plant response rating, Ryegrass, Italian [1, 21]: 75
Plant response rating, Ryegrass, Italian [1, 22]: 95
Plant response rating, Ryegrass, Italian [1, 23]: 100
Plant response rating, Arrowleaf Sida [2, 16]: 75
Plant response rating, Arrowleaf Sida [2, 17]: 80
Plant response rating, Arrowleaf Sida [2, 18]: 80
Plant response rating, Arrowleaf Sida [2, 20]: 85
Plant response rating, Arrowleaf Sida [2, 21]: 60
Plant response rating, Arrowleaf Sida [2, 22]: 40
Plant response rating, Arrowleaf Sida [2, 24]: 90
Plant response rating, Arrowleaf Sida [2, 23]: 95
Plant response rating, Barnyardgrass [3, 16]: 50
Plant response rating, Barnyardgrass [3, 17]: 60
Plant response rating, Barnyardgrass [3, 18]: 50
Plant response rating, Barnyardgrass [3, 20]: 50
Plant response rating, Barnyardgrass [3, 21]: 40
Plant response rating, Barnyardgrass [3, 22]: 20
Plant response rating, Barnyardgrass [3, 24]: 60
Plant response rating, Barnyardgrass [3, 23]: 90
Plant response rating, Corn (corn (Zea mays); [16]): 20
Plant response rating, Corn (corn (Zea mays); [17]): 0
Plant response rating, Corn (corn (Zea mays); [18]): 20
Plant response rating, Corn (corn (Zea mays); [20]): 15
Plant response rating, Corn (corn (Zea mays); [21]): 10
Plant response rating, Corn (corn (Zea mays); [22]): 0
Plant response rating, Corn (corn (Zea mays); [24]): 0
Plant response rating, Corn (corn (Zea mays); [23]): 0
Plant response rating, Crabgrass, Brazil [4, 16]: 40
Plant response rating, Crabgrass, Brazil [4, 17]: 90
Plant response rating, Crabgrass, Brazil [4, 18]: 50
Plant response rating, Crabgrass, Brazil [4, 20]: 50
Plant response rating, Crabgrass, Brazil [4, 21]: 30
Plant response rating, Crabgrass, Brazil [4, 22]: 75
Plant response rating, Crabgrass, Brazil [4, 24]: 95
Plant response rating, Crabgrass, Brazil [4, 23]: 95
Plant response rating, Crabgrass, Large [5, 25]: 15
Plant response rating, Crabgrass, Large [5, 26]: 80
Plant response rating, Crabgrass, Large [5, 27]: 85
Plant response rating, Foxtail, Giant [6, 25]: 95
Plant response rating, Foxtail, Giant [6, 28]: 80
Plant response rating, Foxtail, Giant [6, 26]: 98
Plant response rating, Foxtail, Giant [6, 27]: 100
Plant response rating, Foxtail, Green [7, 25]: 98
Plant response rating, Foxtail, Green [7, 28]: 65
Plant response rating, Foxtail, Green [7, 26]: 98
Plant response rating, Foxtail, Green [7, 27]: 100
Plant response rating, Goosegrass [8, 25]: 65
Plant response rating, Goosegrass [8, 28]: 20
Plant response rating, Goosegrass [8, 26]: 80
Plant response rating, Goosegrass [8, 27]: 90
Plant response rating, Horseweed [9, 25]: 100
Plant response rating, Horseweed [9, 28]: 100
Plant response rating, Horseweed [9, 26]: 100
Plant response rating, Horseweed [9, 27]: 100
Plant response rating, Kochia (kochia (Kochia scoparia); [16]): 95
Plant response rating, Kochia (kochia (Kochia scoparia); [17]): 80
Plant response rating, Kochia (kochia (Kochia scoparia); [18]): 100
Plant response rating, Kochia (kochia (Kochia scoparia); [20]): 98
Plant response rating, Kochia (kochia (Kochia scoparia); [21]): 90
Plant response rating, Kochia (kochia (Kochia scoparia); [22]): 20
Plant response rating, Kochia (kochia (Kochia scoparia); [24]): 98
Plant response rating, Kochia (kochia (Kochia scoparia); [23]): 100
Plant response rating, Lambsquarters [10, 25]: 100
Plant response rating, Lambsquarters [10, 28]: 98
Plant response rating, Lambsquarters [10, 26]: 100
Plant response rating, Lambsquarters [10, 27]: 100
Plant response rating, Nightshade [11, 25]: 80
Plant response rating, Nightshade [11, 29]: 95
Plant response rating, Nightshade [11, 28]: 90
Plant response rating, Nightshade [11, 27]: 98
Plant response rating, Panicum, Fall [12, 16]: 50
Plant response rating, Panicum, Fall [12, 17]: 100
Plant response rating, Panicum, Fall [12, 18]: 80
Plant response rating, Panicum, Fall [12, 19]: 100
Plant response rating, Panicum, Fall [12, 20]: 90
Plant response rating, Panicum, Fall [12, 21]: 50
Plant response rating, Panicum, Fall [12, 22]: 95
Plant response rating, Panicum, Fall [12, 23]: 100
Plant response rating, Sandbur [13, 16]: 60
Plant response rating, Sandbur [13, 17]: 65
Plant response rating, Sandbur [13, 18]: 70
Plant response rating, Sandbur [13, 19]: 80
Plant response rating, Sandbur [13, 20]: 75
Plant response rating, Sandbur [13, 21]: 50
Plant response rating, Sandbur [13, 22]: 35
Plant response rating, Sandbur [13, 23]: 85
Plant response rating, Surinam Grass [14, 25]: 80
Plant response rating, Surinam Grass [14, 29]: 90
Plant response rating, Surinam Grass [14, 28]: 65
Plant response rating, Surinam Grass [14, 27]: 95
Plant response rating, Velvetleaf [15, 25]: 100
Plant response rating, Velvetleaf [15, 29]: 98
Plant response rating, Velvetleaf [15, 28]: 60
Plant response rating, Velvetleaf [15, 27]: 100

Source: patent publication US10597388B2, “Pyridazinone herbicides” (FMC CORPORATION, priority 2014, dated 2020)
